Measured values: ChEMBL document CHEMBL3045870, “Some new thiazolyl thiazolidinedione derivatives as aldose reductase inhibitors” (Med Chem Res, 2007)

Each compound was assayed against Aldo-keto reductase family 1 member B1 (Rattus norvegicus) (UniProt P07943) (assay: Inhibition of Rattus norvegicus (rat) kidney aldose reductase using D-L-glyceraldehyde as substRattus norvegicus (rat) e assessed as decrease in NADPH level at 10^-4 M measured for 5 min by spectrophotometric analysis).

SMILES | inhibition
O=C1S/C(=C\c2sc(N3CCCCC3)nc2Cl)C(=O)N1Cc1ccc(Br)cc1 | 0.62%
O=C1S/C(=C\c2sc(N3CCCCC3)nc2Cl)C(=O)N1Cc1ccc(Cl)cc1 | 0.62%
O=C1S/C(=C\c2sc(SCc3ccc(Cl)cc3)nc2Cl)C(=O)N1Cc1ccc(Cl)cc1 | 0%
O=C1S/C(=C\c2sc(N3CCCCC3)nc2Cl)C(=O)N1Cc1ccc(Cl)cc1Cl | 3.27%
O=C1S/C(=C\c2sc(SCc3ccc(Cl)cc3)nc2Cl)C(=O)N1Cc1ccccc1 | 0%
O=C1S/C(=C\c2sc(SCc3ccc(Cl)cc3)nc2Cl)C(=O)N1Cc1ccc(Br)cc1 | 0%
O=C1S/C(=C\c2sc(N3CCCCC3)nc2Cl)C(=O)N1Cc1ccc(F)cc1 | 0%
O=C1S/C(=C\c2sc(N3CCCCC3)nc2Cl)C(=O)N1Cc1ccc([N+](=O)[O-])cc1 | 2.49%
O=C1S/C(=C\c2sc(SCc3ccc(Cl)cc3)nc2Cl)C(=O)N1Cc1ccc(F)cc1 | 0%
O=C1S/C(=C\c2sc(SCc3ccc(Cl)cc3)nc2Cl)C(=O)N1Cc1ccc(Cl)cc1Cl | 1.56%
O=C1S/C(=C\c2sc(N3CCCCC3)nc2Cl)C(=O)N1Cc1ccccc1 | 0%
O=C1S/C(=C\c2sc(SCc3ccc(Cl)cc3)nc2Cl)C(=O)N1Cc1ccc([N+](=O)[O-])cc1 | 0%
